Test [1] concerns the target T1, caspase 3 (Homo sapiens, UniProt P42574).
T1 construct: the N-terminal region encoding a protein with a molecular weight of about 17 kDa (p17); C-terminal region encoding a protein with a molecular weight of about 12 kDa (p12); made in house; host or cells: Escherichia coli BL21 (DE3) pLysS, plasmid pET3a
T1 sequence (P42574 29-175 limits assumed): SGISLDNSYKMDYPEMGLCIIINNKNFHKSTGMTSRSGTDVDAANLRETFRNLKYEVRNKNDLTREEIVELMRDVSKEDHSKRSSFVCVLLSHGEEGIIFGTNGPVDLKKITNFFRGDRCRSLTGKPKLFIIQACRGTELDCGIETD
T1 sequence (P42574 176-277 limits assumed): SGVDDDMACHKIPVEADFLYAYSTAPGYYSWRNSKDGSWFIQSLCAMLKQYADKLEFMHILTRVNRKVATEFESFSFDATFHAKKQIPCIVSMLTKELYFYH
Nature of the test: Examination of caspase 3 inhibitory mode in the presence of zinc (Lineweaver-Burk plots). The class given is biochemical. The procedure:
(§1) Solution A comprising composition of 50 mM HEPES, pH 7.5, 10% (w/v) saccharose, and 0.1% (w/v) 3-[(3-cholamidopropyl)dimethylammonio]-1-propane sulfonate (CHAPS) was used as the base of a liquid for enzymatic reaction with adding a test compound, if necessary. A 10 ng/100 µL human caspase 3 solution (Solution B: Solution A + 10 mM dithiothreitol (DTT)) and a test compound at different concentrations were mixed and the mixture was left at room temperature for 30 minutes. In a control experiment, caspase 3 mixed with DMSO instead of the test compound was used. Then, 100 µL of 50 µM Ac-Asp-Glu-Val-Asp-MCA (Solution A, Peptide Kenkyusyo, 3171-v) as a substrate solution were added thereto to start reaction. Time course of the decomposition of the substrate were measured on a fluorescent photometer (Corona Denki, MTP-32, excitation wavelength/360 nm, emission waverangeth/450 nm or SLT, fluostar, excitation wavelength/380 nm, emission wavelength/460 nm) and an enzyme activity of the test compound-added group relative to the control was calculated.
(§2) The effects of the test compound at various concentrations on the enzyme activity were measured in a similar manner to the case in the absence of zinc ion as described in the section 1). However, a substrate solution containing 3 mM ZnSO4 was used.
The caspase 3 inhibitory mode of Compound A in the presence of zinc was examined according to the methods 1) and 2) of Example 3. […] The inhibitory mode was analyzed with Lineweaver-Burk plots (double reciprocal plots).
The caspase 3 inhibitory mode of Compound B in the presence of zinc was examined according to the methods 1) and 2) of Example 3. […] The inhibitory mode was analyzed with Lineweaver-Burk plots (double reciprocal plots).
The caspase 3 inhibitory mode of Compound C in the presence of zinc was examined according to the methods 1) and 2) of Example 3. […] The inhibitory mode was analyzed with Lineweaver-Burk plots (double reciprocal plots).

The target of test [2] is T1, caspase 3. Nature of the test: Screening method of caspase 3 inhibitor, in the presence of zinc ion (substrate solution containing 3 mM ZnSO4). The class given is biochemical. The note with it: for ratio (enzyme activity (+Zn)/enzyme activity (-Zn)): test compound 100 µM, 25 ng/100 µL human caspase 3, reaction time 15 minutes; for IC50: in the presence of zinc ion. The method, then: (§3) From human brain cDNA, the N-terminal region encoding a protein with a molecular weight of about 17 kDa (p17) and C-terminal region encoding a protein with a molecular weight of about 12 kDa (p12) were amplified by PCR, and then subcloned into an Escherichia coli expression plasmid (pET3a). Using these plasmids, a host bacterium for expressing proteins (BL21 (DE3) pLysS) was transformed. Then, the transformed bacterium was cultured in M9 medium and an active caspase 3 was prepared. Firstly, fungus body recovered from M9 medium was broken by sonication and an inclusion body was recovered by centrifugation. The inclusion body was solubilized under denatured conditions using 3M guanidine solution, and after mixing with p17 polypeptide and p12 polypeptide, diluted with a dialysis solution. The whole was left at room temperature for 1 hour at this situation, and after regeneration, concentrated. After the sample was dialyzed to exchange the buffer solution, insoluble proteins were removed by ultracentrifugation (100,000 X G, 30 minutes). Upon quantitative protein determination, about 30 mg of a protein was recovered.
as §1, with “A 10 ng/100 µL human caspase 3 solution (Solution B: Solution A + 10 mM dithiothreitol (DTT)) and a test compound at different concentrations were mixed and the mixture was left at room temperature for 30 minutes.” left out
as §2
The enzyme activities calculated in the absence of zinc ion (-Zn) and in the presence of zinc ion (+Zn) were compared (enzyme activity (+Zn)/enzyme activity (-Zn)).

Test [3] has as its system rat hippocampal neuron. Nature of the test: Apoptosis inhibitory action: suppression of DNA fragmentation induced by Etoposide. It is filed as cell-based. The procedure: Cultured rat hippocampal neuron was prepared according to a usual method (Neurochem. Int., 31(5), 715-722, 1997). Brain was taken out of a fetus of rat at day 19 of gestation, and hippocampus was picked up under a stereomicroscope. The hippocampus was treated with an enzyme, dispersed by pipetting several times, and cell clusters were removed through a filter to prepare a cell suspension. The cell was cultured at a concentration of 1.2 x 10^5 cells/cm^2 in a 12-well plate coated with polylysine. A "culture medium for neuron" manufactured by Sumitomo Bakelite Co., Ltd. was used as the culture liquid. The neuronal cell at 13 to 16 days of culture was used. Etoposide was employed for inducing apoptosis of the neuronal cell. The induction of DNA fragments was evaluated as a marker of apoptosis.
Cell stimulation was carried out by replacing the cell culture medium with a serum-free medium containing 3 µg/mL Etoposide. After 6 hours from the start of the stimulation, the cell was recovered. TaKaRa ApopLadder Ex kit was used for the extraction of fragmented DNA. The fragmented DNA were subjected to electrophoresis followed by staining with CYBR Green, and the fluorescence intensity of the DNA was measured by means of a scanner manufactured by Molecular Dynamics Co.

Test [4] concerns the target T1, caspase 3. Nature of the test: Screening method of caspase 3 inhibitor, in the absence of zinc ion (fluorogenic substrate Ac-Asp-Glu-Val-Asp-MCA). It is filed as biochemical. The note with it: for inhibition at 100 µM: at 100 µM in the absence of zinc ion, read-out: enzyme activity inhibited. The method, then: as §3
as §1, with “Then, 100 µL of 50 µM Ac-Asp-Glu-Val-Asp-MCA (Solution A, Peptide Kenkyusyo, 3171-v) as a substrate solution were added thereto to start reaction.” left out

Peptide text beside a SMILES is read from it. * marks the point of attachment. Cbz = O=C(OCc1ccccc1)*; CH2F = FC*

On to `c1ccc2[nH]c(Cc3nc4ccccc4[nH]3)nc2c1` [Compound A, bis(1H-benzimidazol-2-yl)methane], for which the “caspase 3 inhibitory mode” value in test [1] was “substrate-competitive and reversible”. Also, in test [2], the “ratio (enzyme activity (+Zn)/enzyme activity (-Zn))” value stood at 0.37.

Turning to `ON=C(c1nc2ccccc2[nH]1)c1nc2ccccc2[nH]1` [Compound B, bis(1H-benzimidazol-2-yl)ketone oxime], the “caspase 3 inhibitory mode” value in test [1] is “substrate-competitive and reversible”. In test [2], the “ratio (enzyme activity (+Zn)/enzyme activity (-Zn))” value worked out at 0.44.

For `CCCN1C(=O)C2(Oc3c(c(=O)n(CCC)c4ncccc34)S2)C(=O)c2cccnc21` (centres unmarked) [Compound C, 1,5'-dipropylspiro[1,8-naphthyridine-3(2H),2'-[1,3]oxathiolo[4,5-c][1,8]naphthyridine]-2,4,4' (1H,5'H)-trione], the “caspase 3 inhibitory mode” value in test [1] is “substrate-competitive and reversible”. Also, the IC50 – broadly, the concentration at which inhibition is half-maximal – in test [2] was determined as 1200 nM; in test [3] (Rattus norvegicus, Hippocampal neuron, 3 µg/mL Etoposide, 6 hours, compound at 10, 25, 50 µM, no zinc added to medium), 17000 nM. In addition, the inhibition at 100 µM in test [4] was determined as 17%.

Take `CCCN1C(=O)C2(Oc3c(c(=O)n(CCC)c4ccccc34)S2)C(=O)c2ccccc21` (centres unmarked) [Compound D]: in test [2], the IC50 turned out to be 350 nM. Also, the apoptosis inhibitory action entry in test [3] (at a concentration of 33.3 µM, added together with Etoposide) is reported as “strong apoptosis inhibitory action”. In test [4], the inhibition at 100 µM turned out to be 13%.

With `COC(=O)C[C@H](NC(=O)[C@H](C)NC(=O)[C@@H](NC(=O)OCc1ccccc1)C(C)C)C(=O)CF` [z-VAD.FMK, z-Val-Ala-Asp(OMe)-CH2F, reference compound] (Cbz-Val-Ala-Asp(OMe)-CH2F), the “effect of zinc ion on the caspase 3 inhibitory activity” value in test [2] (comparison of presence and absence of zinc ion) is given as “no remarkable enhancing effect”. Besides, the 50% inhibitory concentration (IC50) came out at 550 nM in test [2] (reaction time 30 minutes) and 510 nM in test [4] (in the absence of zinc ion, reaction time 30 minutes).

The values are drawn from patent EP1172443A1, “METHOD FOR SCREENING CYSTEINE PROTEASE INHIBITOR” (YAMANOUCHI PHARMACEUTICAL CO. LTD., priority 1999, dated 2000).
